According to paper PMC12280925, “Structure-based discovery of positive allosteric modulators of the A1 adenosine receptor” (Proceedings of the National Academy of Sciences of the …, 2025):
Positions count from the first letter of the chain named. Like-named read-outs stand apart in the source and are kept apart here.

How the values were obtained:
[1] = test system: A1R-mediated rat atrial beat rate; assay: Isolated rat atria: NECA-mediated decrease in contractile rate; details: approximate, read-out: potency (EC50) for inhibition in rat atrial beat rate
Description: Isolated rat atrial experiments were performed as previously described ([53]). Briefly, 10 to 16 wk old male Sprague Dawley rats were anesthetized with xylazine/ketamine and the chest cavity of the rat was opened to fully expose the heart, which was rapidly removed and placed in Krebs–Henseleit solution. The heart was cut transversely below the right and left atria to remove the ventricles, and the remaining […] were trimmed carefully. Atria was then mounted in an organ bath at 37 °C, bubbled with 5% CO2/95% O2, and allowed to contract spontaneously. The rate of atrial contraction was measured using a force transducer connected to a PowerLab data acquisition system. […] All experiments involving animals were approved by the Monash Institute of Pharmaceutical Sciences Animal Ethics Committee under project number 20213.

[2] = target: T1, A1R (A1R-FlpInCHO cells) (Homo sapiens, UniProt P30542); assay: Whole-cell [3H]DPCPX competition binding: NECA affinity in absence or presence of compound; details: 30 μM compound; for effect on NECA affinity (pKI): [3H]DPCPX competition binding, A1R-FlpINCHO cells; for effect on [3H]DPCPX binding (1 nM): absence of orthosteric agonist
T1 sequence (P30542 1-326): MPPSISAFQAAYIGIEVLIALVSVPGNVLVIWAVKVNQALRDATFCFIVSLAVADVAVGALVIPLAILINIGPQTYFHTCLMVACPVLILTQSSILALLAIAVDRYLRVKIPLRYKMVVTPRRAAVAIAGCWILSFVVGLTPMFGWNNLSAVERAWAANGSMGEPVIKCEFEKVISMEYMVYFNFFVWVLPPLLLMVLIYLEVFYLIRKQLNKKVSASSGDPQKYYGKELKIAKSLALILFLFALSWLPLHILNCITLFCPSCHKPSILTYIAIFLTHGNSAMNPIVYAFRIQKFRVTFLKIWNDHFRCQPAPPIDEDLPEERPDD
Description: [^3H]DPCPX (8-cyclopentyl-1,3-dipropylxanthine, [dipropyl-2,3-^3H(N)]) whole-cell binding assays were performed on FlpINCHO cells stably expressing either WT (nontagged or 3xHA-tagged) or mutant 3xHA-A1R. Cells were seeded into a transparent 96-well plate at 40,000 cells/well in DMEM containing 10% FBS. Following 8 h incubation in a humidified environment at 37 °C in 5% CO2, cells were washed and maintained in serum-free DMEM for approximately 18 h at 37 °C in 5% CO2. […] Assays were terminated by washing twice with 100 μL/well cold phosphate-buffered saline, followed by the addition of 100 μL OptiPhase Supermix™ scintillation cocktail and bound radioactivity measured using a MicroBeta^2 ™ plate counter (PerkinElmer).
[^3H]DPCPX competition binding curves were fitted to a one-site inhibitory mass action equation:[1] Y=Bottom+Top-Bottom/1+10^X-LogIC50,
The top and bottom represent the maximal and minimal binding in the presence of the competitive ligand, respectively. Equilibrium dissociation constant (KI) values were subsequently derived from inhibition binding experiments using the Cheng–Prusoff equation:[2] KI=IC50/1+A/KD.

[3] = target: T1, A1R (A1R-FlpInCHO cells); assay: Inhibition of forskolin-stimulated cAMP accumulation: NECA potency ± compound and compound alone; type: cell-based; details: for effect on NECA potency (pEC50): 30 μM compound, inhibition of forskolin-stimulated cAMP accumulation; for allosteric agonism (functional response in the absence of NECA): 30 μM compound alone, 3 μM forskolin-stimulated cAMP accumulation
Description: (§1) FlpInCHO cell lines and cortical neuron cells were seeded into transparent 96-well plates at 20,000 cells/well and incubated for 16 to 20 h in a humidified incubator at 37 °C in 5% CO2. […] Compounds were added at either a single concentration (10 or 30 μM) or a concentration range for full interaction studies (3 to 30 μM), and plates were incubated for 30 to 60 min at 37 °C in a humidified chamber. […] After 30 min incubation at 37 °C, the reaction was terminated by rapid removal of buffer and the addition of 50 μL/well cold ethanol. […] Agonist concentration–response curves were normalized to the response mediated by 3 µM forskolin […].
Response=Basal+Emax-Basal×A/EC50+A,

[4] = target: T2, A1R allosteric site (A1R-FlpINCHO cells, wild type) (Homo sapiens, UniProt P30542); assay: Whole-cell [3H]DPCPX interaction binding with NECA, allosteric ternary complex model; details: for binding cooperativity with NECA (logα): orthosteric agonist NECA
T2 sequence (P30542 1-326): T1 sequence (P30542 1-326)
Description: Equilibrium binding interaction experiments were fitted to the following allosteric ternary complex model.[3] Y=BmaxA/A+KAKB/αAB+KB1+[I]/KI+[B]/KB+αII[B]/KIKB,
A cooperativity factor α > 1 describes positive cooperativity; a value 0 < α < 1 describes negative cooperativity, and a value of α = 1 describes neutral cooperativity.

[5] = target: T1, A1R (A1R-FlpInCHO cells); assay: NECA/allosteric ligand interaction in cAMP accumulation, operational model of allosterism; type: cell-based; details: for allosteric ligand efficacy (logτB): allosteric agonism in cAMP; for functional cooperativity with NECA (logαβ): cAMP
Description: as §1
[5] E=EmτAAKB+αβ[B]+τB[B]KA^n/AKB+KAKB+[B]KA+α[A][B]^n+τAAKB+αβ[B]+τB[B]KA^n
Orthosteric agonist and allosteric ligand affinity were constrained to values determined from radioligand binding.

[6] = target: T3, A1R G279^7.44A mutant (Homo sapiens, UniProt P30542, G279A); assay: [3H]DPCPX interaction binding at mutant G279A-A1R-FlpINCHO
T3 construct: expressed in transfected cells; host or cells: FlpInCHO cells, stably transfected
T3 sequence (P30542 1-326 G279A): T1 sequence (P30542 1-326) with G279A

[7] = test system: nontransfected FlpINCHO cells; assay: cAMP accumulation in nontransfected FlpINCHO cells; type: cell-based, Chinese hamster; details: 10 µM compound
[8] = target: T4, A2BR (Homo sapiens, UniProt P29275); assay: cAMP accumulation in A2BR FlpINCHO cells (selectivity); type: cell-based
T4 construct: expressed in transfected cells; host or cells: FlpInCHO cells, stably transfected
T4 sequence (P29275 1-332): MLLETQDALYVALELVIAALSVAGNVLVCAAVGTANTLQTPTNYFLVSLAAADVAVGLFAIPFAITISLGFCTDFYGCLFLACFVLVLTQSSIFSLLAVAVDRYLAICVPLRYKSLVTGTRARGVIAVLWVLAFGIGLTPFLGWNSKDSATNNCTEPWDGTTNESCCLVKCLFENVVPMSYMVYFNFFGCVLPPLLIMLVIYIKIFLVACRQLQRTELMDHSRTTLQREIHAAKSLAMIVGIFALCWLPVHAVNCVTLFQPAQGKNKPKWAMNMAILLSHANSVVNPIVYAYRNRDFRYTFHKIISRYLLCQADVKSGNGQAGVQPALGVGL

[9] = target: T5, A2AR (Homo sapiens, UniProt P29274); assay: cAMP accumulation in A2AR FlpINCHO cells (selectivity); type: cell-based
T5 construct: expressed in transfected cells; host or cells: FlpInCHO cells, stably transfected

[10] = target: T6, A1R S246^6.47A mutant (Homo sapiens, UniProt P30542, S246A); assay: [3H]DPCPX interaction binding at mutant S246A-A1R-FlpINCHO
T6 construct: expressed in transfected cells; host or cells: FlpInCHO cells, stably transfected
T6 sequence (P30542 1-326 S246A): T1 sequence (P30542 1-326) with S246A

[11] = target: T7, M2 receptor (M2R) (Homo sapiens, UniProt P08172); assay: cAMP accumulation in M2 receptor FlpINCHO cells (selectivity); type: cell-based; details: acetylcholine as agonist
T7 sequence (P08172 1-466): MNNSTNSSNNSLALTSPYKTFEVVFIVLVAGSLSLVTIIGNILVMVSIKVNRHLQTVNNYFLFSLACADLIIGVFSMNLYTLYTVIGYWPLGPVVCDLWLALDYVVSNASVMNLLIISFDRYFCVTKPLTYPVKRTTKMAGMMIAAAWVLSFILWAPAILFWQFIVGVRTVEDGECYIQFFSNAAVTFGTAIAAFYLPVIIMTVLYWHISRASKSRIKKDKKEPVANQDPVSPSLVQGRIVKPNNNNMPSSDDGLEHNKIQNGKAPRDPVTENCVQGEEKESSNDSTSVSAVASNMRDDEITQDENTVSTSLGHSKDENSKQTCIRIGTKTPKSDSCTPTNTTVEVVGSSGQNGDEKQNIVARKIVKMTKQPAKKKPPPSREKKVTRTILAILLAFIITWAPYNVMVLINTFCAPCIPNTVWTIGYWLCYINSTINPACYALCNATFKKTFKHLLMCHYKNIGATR

[12] = target: T8, A3R (Homo sapiens, UniProt P0DMS8); assay: cAMP accumulation in A3R FlpINCHO cells (selectivity); type: cell-based
T8 construct: expressed in transfected cells; host or cells: FlpInCHO cells, stably transfected
T8 sequence (P0DMS8 1-318): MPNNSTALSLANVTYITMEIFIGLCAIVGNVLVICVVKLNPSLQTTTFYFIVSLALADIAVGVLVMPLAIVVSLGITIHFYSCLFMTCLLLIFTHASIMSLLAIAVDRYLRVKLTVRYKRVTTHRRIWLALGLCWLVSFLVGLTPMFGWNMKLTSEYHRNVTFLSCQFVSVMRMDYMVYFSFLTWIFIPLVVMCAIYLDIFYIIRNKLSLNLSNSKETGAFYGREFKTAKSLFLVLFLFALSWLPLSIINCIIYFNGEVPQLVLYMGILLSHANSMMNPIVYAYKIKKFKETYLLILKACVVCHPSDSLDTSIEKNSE

[13] = allosteric ternary complex model

T5 sequence (P29274 whole entry): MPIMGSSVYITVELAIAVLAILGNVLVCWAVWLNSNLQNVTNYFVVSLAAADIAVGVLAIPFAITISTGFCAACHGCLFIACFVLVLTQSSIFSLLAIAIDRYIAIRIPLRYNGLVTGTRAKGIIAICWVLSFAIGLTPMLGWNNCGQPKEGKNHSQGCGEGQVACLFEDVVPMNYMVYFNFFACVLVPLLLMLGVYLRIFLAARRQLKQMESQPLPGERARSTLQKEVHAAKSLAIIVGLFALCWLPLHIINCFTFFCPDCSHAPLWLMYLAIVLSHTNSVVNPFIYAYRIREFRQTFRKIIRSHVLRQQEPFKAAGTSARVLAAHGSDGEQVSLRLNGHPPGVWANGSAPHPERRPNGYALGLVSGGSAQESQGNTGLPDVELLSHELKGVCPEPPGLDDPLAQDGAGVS

CCNC(=O)[C@H]1O[C@@H](n2cnc3c(N)ncnc32)[C@H](O)[C@@H]1O [NECA, 5′-N-ethylcarboxamidoadenosine]
EC50 [1]: ~0.13 µM

CCCc1sc(N)nc1-c1ccc(C)cc1C [compound 2]
effect on NECA affinity (pKI) [2]: significantly enhanced | effect on NECA potency (pEC50) ([3]; A1R-FlpINCHO cells): significantly enhanced

Nc1nc(-c2cccc3ccccc23)cs1 [compound 12]
Kb ([4]; allosteric ternary complex model, n = 4, read-out: allosteric ligand affinity (pKB) (converted)): 23.4 µM | binding cooperativity with NECA (logα) [4, 13]: 0.99 ± 0.25 | positive cooperativity between PAM and NECA ([4]; approximate, from logα): ~10 fold | Kd ([4]; approximate, from pKB, read-out: affinity for the A1R allosteric site): ~25 µM | allosteric ligand efficacy (logτB) [5]: −0.65 ± 0.12 | functional cooperativity with NECA (logαβ) [5]: 0.68 ± 0.10 | effect on NECA affinity (pKI) [2]: significantly enhanced | effect on [3H]DPCPX binding (1 nM) [2]: modest but significant decrease | allosteric agonism (functional response in the absence of NECA) [3]: no significant effect | effect on NECA potency (pEC50) ([3]; A1R-FlpINCHO cells): significantly enhanced

Cc1ccc(C(=O)c2c(N)sc(C)c2C)cc1 [compound 20]
effect on NECA affinity (pKI) [2]: significantly enhanced | effect on [3H]DPCPX binding (1 nM) [2]: modest but significant decrease | allosteric agonism (functional response in the absence of NECA) [3]: no significant effect | effect on NECA potency (pEC50) ([3]; A1R-FlpINCHO cells): significantly enhanced

Nc1ccc(Cl)cc1C(=O)c1ccc(F)cc1 [compound 22]
effect on NECA affinity (pKI) [2]: significantly enhanced

CCCc1sc(N)nc1-c1ccc(C)c2ccccc12 [compound 54]
binding cooperativity (logα) with NECA ([4]; WT A1R, Table S2): 0.92 | Kb ([4]; allosteric ligand affinity (pKB), allosteric ternary complex model, n = 4): 7.08 µM | binding cooperativity with NECA (logα) [4, 13]: 1.15 ± 0.10 | Kb ([4]; pKB, WT A1R, mean ± SEM (n), Table S2): 5.62 µM | effect of G279^7.44A on affinity [6]: did not influence | effect of G279^7.44A on allosteric cooperativity with the orthosteric agonist [6]: significantly decreased | Kb ([6]; […], Table S2): 2.14 µM | binding cooperativity (logα) with NECA ([6]; […], Table S2): -0.05 | effect in nontransfected FlpINCHO cells [7]: no significant effect | effect on NECA potency ([8]; 10 µM compound, A2BR): no significant effect | agonism (compound alone) ([8]; 30 μM, A2BR FlpINCHO cells): no appreciable activity | allosteric ligand efficacy (logτB) [5]: −0.37 ± 0.10 | functional cooperativity with NECA (logαβ) [5]: 0.84 ± 015 | effect on NECA potency ([9]; 10 µM compound, A2AR): no significant effect | agonism (compound alone) ([9]; 30 μM, A2AR FlpINCHO cells): no appreciable activity | effect of S246^6.47A on affinity or cooperativity [10]: did not significantly decrease | Kb ([10]; […], Table S2): 5.13 µM | binding cooperativity (logα) with NECA ([10]; […], Table S2): 1.10 | agonism (compound alone) ([3]; A1R-FlpINCHO cells): modest functional response | effect in FlpINCHO cells expressing the M2 receptor [11]: no significant effect | effect on NECA potency ([12]; 10 µM compound, A3R): no significant effect | agonism (compound alone) ([12]; 30 μM, A3R FlpINCHO cells): no appreciable activity
